From PMC10766962 (Nature Communications, 2024)
Values joined by “and” are separate entries in the source; they are usually repeats but may differ in a detail not shown here. Identical values can stand only once. “Also recorded” adds a separate entry of the source. Like-named read-outs stand apart in the source and are kept apart here. Positions of bridges follow the written chain, without caps; N, C: chain ends. Non-standard residues stand in square brackets, D forms with d. Residues, ends and D or L forms follow the SMILES beside them. Groups on a side chain read outwards from the residue. *: point of attachment. Acetyl(2-S-cholesteryl) = CC(C)CCC[C@@H](C)[C@H]1CC[C@H]2[C@@H]3CC=C4C[C@@H](SCC(=O)*)CC[C@]4(C)[C@H]3CC[C@]12C; R8 = C=CCCCCCC[C@@](C)(N)C(=O)O; PEG4 = NCCOCCOCCOCCOCCC(=O)O; S5 = C=CCCC[C@](C)(N)C(=O)O; Nle = CCCC[C@H](N)C(=O)O

What was measured:
[1] = biological target: SARS-CoV-2 5-helix bundle (5-HB) protein (Severe acute respiratory syndrome coronavirus 2, UniProt P0DTC2); assay: biochemical; assay type: binding
[2] = assay type: physicochemical; settings: pH 7.4
[3] = tested on: SARS-CoV-2 WA-1 (Wuhan) isolate; set-up: species or system Syrian (Golden) hamsters; settings: hamster, in vivo
[4] = tested on: SARS-CoV-2 Delta B.1.617.2 live virus
in vivo [5] = settings: male, C57BL/6, mouse, inhaled or intranasal
[6] = mouse, in vivo
[7] = assay type: physicochemical; settings: pH 7.5
[8] = tested on: SARS-CoV-2 B.1.1.529.1 pseudovirus
[9] = tested on: SARS-CoV-2 B.1.617.2 pseudovirus
[10] = tested on: SARS-CoV-2 Beta B.1.351 live virus
[11] = assay type: physicochemical
[12] = tested on: SARS-CoV-2 WA-1 (Wuhan) isolate; set-up: species or system Syrian (Golden) hamsters; settings: hamster, in vivo; remark: listed apart in the source
in vivo [13] = settings: male, Syrian (Golden), hamster, inhaled or intranasal, 2.5 mg/kg, Nasal Tissue
[14] = 1 mg/kg, RQ-01 Nasal Tissue Concentration
[15] = 3 mg/kg, RQ-01 Nasal Tissue Concentration
[16] = 10 mg/kg, RQ-01 Nasal Tissue Concentration

In the case of `CC[C@H](C)[C@H](NC(=O)CNC(=O)[C@H](CO)NC(=O)[C@@H](NC(=O)[C@H](CC(=O)O)NC(C)=O)[C@@H](C)CC)C(=O)N[C@@H](CC(N)=O)C(=O)N[C@@H](C)C(=O)N[C@@H](CO)C(=O)N[C@H](C(=O)N[C@H](C(=O)N[C@@H](CC(N)=O)C(=O)N[C@H](C(=O)N[C@]1(C)CCCCCCC=CCCC[C@@](C)(C(=O)N[C@@H](CCC(=O)O)C(=O)N[C@H](C(=O)N[C@@H](C)C(=O)N[C@@H](CCCCN)C(=O)N[C@@H](CC(N)=O)C(=O)N[C@@H](CC(C)C)C(=O)N[C@@H](CC(N)=O)C(=O)N[C@@H](CCC(=O)O)C(=O)N[C@@H](CO)C(=O)N[C@@H](CC(C)C)C(=O)N[C@H](C(=O)N[C@@H](CC(=O)O)C(=O)N[C@@H](CC(C)C)C(=O)N[C@@H](CCC(N)=O)C(=O)N[C@@H](CCC(=O)O)C(=O)N[C@@H](CC(C)C)C(=O)NCC(=O)N[C@@H](CCCCN)C(N)=O)[C@@H](C)CC)C(C)C)NC(=O)[C@H](CC(C)C)NC(=O)[C@H](CCCNC(=N)N)NC(=O)[C@H](CC(=O)O)NC(=O)[C@H]([C@@H](C)CC)NC(=O)[C@H](CCC(=O)O)NC(=O)[C@H](CCCCN)NC1=O)[C@@H](C)CC)C(C)C)C(C)C` [RQ-01 (- linker-lipid)], the “improvement of affinity compared to the unstapled HR2 peptide” value [1] is reported as 7.5 fold.
For `CC[C@H](C)[C@H](NC(=O)CNC(=O)[C@H](CO)NC(=O)[C@@H](NC(=O)[C@H](CC(=O)O)NC(C)=O)[C@@H](C)CC)C(=O)N[C@@H](CC(N)=O)C(=O)N[C@@H](C)C(=O)N[C@@H](CO)C(=O)N[C@H](C(=O)N[C@H](C(=O)N[C@@H](CC(N)=O)C(=O)N[C@H](C(=O)N[C@]1(C)CCCCCCC=CCCC[C@@](C)(C(=O)N[C@@H](CCC(=O)O)C(=O)N[C@H](C(=O)N[C@@H](C)C(=O)N[C@@H](CCCCN)C(=O)N[C@@H](CC(N)=O)C(=O)N[C@@H](CC(C)C)C(=O)N[C@@H](CC(N)=O)C(=O)N[C@@H](CCC(=O)O)C(=O)N[C@@H](CO)C(=O)N[C@@H](CC(C)C)C(=O)N[C@H](C(=O)N[C@@H](CC(=O)O)C(=O)N[C@@H](CC(C)C)C(=O)N[C@@H](CCC(N)=O)C(=O)N[C@@H](CCC(=O)O)C(=O)N[C@@H](CC(C)C)C(=O)NCC(=O)N[C@@H](CCCCNC(=O)CCOCCOCCOCCOCCOCCOCCOCCOCCNC(=O)CO[C@H]2CC[C@@]3(C)C(=CC[C@H]4[C@@H]5CC[C@H]([C@H](C)CCCC(C)C)[C@@]5(C)CC[C@@H]43)C2)C(N)=O)[C@@H](C)CC)C(C)C)NC(=O)[C@H](CC(C)C)NC(=O)[C@H](CCCNC(=N)N)NC(=O)[C@H](CC(=O)O)NC(=O)[C@H]([C@@H](C)CC)NC(=O)[C@H](CCC(=O)O)NC(=O)[C@H](CCCCN)NC1=O)[C@@H](C)CC)C(C)C)C(C)C` [RQ-01], the “elution by fast protein liquid chromatography” value [2] was “eluted as a monodispersed peak”, the OP swab titer [3] was 10-20 PFUs and the “lung histopathology (pneumonia global severity score, total lung score)” value [3] was “significant protection from the pulmonary sequelae of SARS-CoV-2 infection”. For the same compound, the “viral shedding by OP swab” value [3] was “significantly reduced”, the weight loss [3] was “significant protective effect from weight loss; also recorded: protection from weight loss was also observed” and the EC50 [1] was 1.9 nM. For the same compound, the “fold by which RQ-01 outperformed SARSHRC-PEG4-chol” value (“fold” for short) [4] was 5.4 fold, the level at time molar at 2 h (in vivo [5]; [14]) was 16.2 µM and the level at time molar at 4 h (in vivo [5]; [14]) was 22.5 µM. The level at time molar at 7 h (in vivo [5]; 1 mg/kg, RQ-01 Tissue Concentration) was 0.064 µM, the level at time molar (in vivo [5]; 2 mg/kg, pH 7.2, nasal tissue level, start) was 10 µM and the level at time molar at 2 h (in vivo [5]; [15]) was 27.5 µM. It also gave a level at time molar at 4 h (in vivo [5]; [15]) of 28.1 µM, a level at time molar at 7 h (in vivo [5]; [15]) of 26.4 µM and a level at time molar at 24 h (in vivo [5]; [15]) of 18.7 µM. It also gave a level at time molar at 2 h (in vivo [5]; [16]) of 73 µM, a level at time molar at 4 h (in vivo [5]; [16]) of 44.9 µM and a level at time molar at 7 h (in vivo [5]; [16]) of 59.6 µM. For the same compound, the level at time molar at 24 h (in vivo [5]; [16]) was 25.4 µM, the clinical observations [6] was “no adverse clinical findings” and the “nasal tissue exposure relative to IC90 value” [6] was 100-2000 x IC90. For the same compound, the “nasal tissue levels relative to infectivity assay IC90” value [6] was “over 100”, the “peak lung tissue concentration relative to nasal tissue” value ([6]; pH 6.5) was “approximately 1/10th” and the “plasma exposure relative to nasal tissue” value ([6]; pH 6.5) was “approximately 1/1000th”. The “nasal tissue level by 48 h” value ([6]; pH 7.2) was 1 µM, the peak lung level ([6]; pH 7.2) was 1 µM and the circular dichroism analysis [7] was “exhibited α-helical character”. For the same compound, the “fold” value [8] was 23 fold, the “fold” value [9] was 4.7 fold and the “improvement of antiviral activity compared to the unstapled peptide” value [10] was 24 to 39 fold. For the same compound, the “intact compound, % of initial levels” value ([11]; 25 μM) was “fully preserved”, the “Percent Intact Peptide” value ([11]; 1 h) was 108.538% and 105.019% and 100.148% and 101.614% and the “Percent Intact Peptide” value ([11]; 12 h) was 100.519% and 101.487% and 97.3524% and 61.8294% and 103.036% and 91.5274% and 92.844% and 95.276%. For the same compound, the cytotoxicity (A549-ACE2 cells) was “no cytotoxicity”, the “OP swab titers (Day 3)” value [12] was “A subset of hamsters from both RQ-01 treated cohorts exhibited reduced OP swab titers” and the lung viral titers [12] was “suppression of lung viral titers”. The “transmission to sentinel hamsters” value [12] was “did not prevent transmission”, the “weight loss of sentinels” value [12] was “protection from weight loss” and the level at time molar at 4 h (in vivo [13]; RQ-01 tissue concentration) was 23.2 µM. It also gave a level at time molar at 4 h (in vivo [13]; pH 6.5, RQ-01 tissue concentration) of 28.8 µM.
For `CC[C@H](C)[C@H](NC(=O)[C@H](C)NC(=O)[C@H](CS)NC(=O)[C@H](CC(=O)O)NC(=O)[C@@H]1CCCN1C(=O)CNC(=O)[C@H](CC(C)C)NC(=O)[C@@H](NC(=O)[C@H](Cc1c[nH]cn1)NC(=O)[C@H](CS)NC(=O)[C@@H](NC(C)=O)[C@@H](C)O)[C@@H](C)CC)C(=O)N[C@@H](CCC(=O)O)C(=O)N1CCC[C@H]1C(=O)N[C@@H](Cc1c[nH]cn1)C(=O)N[C@@H](CC(=O)O)C(=O)N[C@@H](Cc1c[nH]c2ccccc12)C(=O)N[C@H](C(=O)N[C@]1(C)CCCCCCC=CCCC[C@@](C)(C(=O)N[C@@H](CCC(N)=O)C(=O)N[C@H](C(=O)N[C@H](C(=O)N[C@@H](Cc2c[nH]cn2)C(=O)N[C@@H](CC(=O)O)C(=O)N[C@@H](Cc2ccccc2)C(=O)N[C@H](C(=O)N[C@@H](CCCCNC(=O)CCOCCOCCOCCOCCNC(=O)CS[C@H]2CC[C@@]3(C)C(=CC[C@H]4[C@@H]5CC[C@H]([C@H](C)CCCC(C)C)[C@@]5(C)CC[C@@H]43)C2)C(N)=O)C(C)C)[C@@H](C)CC)[C@@H](C)CC)NC(=O)[C@H]([C@@H](C)CC)NC(=O)[C@H](CCCCN)NC(=O)[C@H](CC(=O)O)NC(=O)[C@H]([C@@H](C)O)NC(=O)[C@H]([C@@H](C)CC)NC(=O)[C@H](CCC(=O)O)NC1=O)[C@@H](C)O` [SLI-EBOV] (Ac-TCHILGPDCAIEPHDWT[R8]EITDKI[S5]QIIHDFVK([PEG4-Acetyl(2-S-cholesteryl)])-NH2; staple 18-25), the cytotoxicity (HeLa cells) was “no cytotoxicity”.
For `CCCC[C@H](NC(=O)[C@H](CO)NC(=O)[C@H](CO)NC(=O)[C@@H](NC(=O)[C@H](CCC(N)=O)NC(=O)[C@H](CO)NC(=O)[C@H](CO)NC(=O)[C@@H](NC(=O)[C@H](CC(=O)O)NC(C)=O)[C@@H](C)CC)[C@@H](C)CC)C(=O)N[C@@H](CC(N)=O)C(=O)N[C@@H](CCC(N)=O)C(=O)N[C@@H](CO)C(=O)N[C@@H](CC(C)C)C(=O)N[C@]1(C)CCCCCCC=CCCC[C@@](C)(C(=O)N[C@@H](CCC(=O)O)C(=O)N[C@@H](C)C(=O)N[C@@H](CCC(N)=O)C(=O)N[C@@H](CCCCN)C(=O)N[C@H](C(=O)N[C@@H](CC(C)C)C(=O)N[C@@H](CC(=O)O)C(=O)N[C@H](C(=O)N[C@H](C(=O)N[C@@H](CCCCNC(=O)CCOCCOCCOCCOCCNC(=O)CS[C@H]2CC[C@@]3(C)C(=CC[C@H]4[C@@H]5CC[C@H]([C@H](C)CCCC(C)C)[C@@]5(C)CC[C@@H]43)C2)C(N)=O)C(C)C)[C@@H](C)O)[C@@H](C)CC)NC(=O)[C@H]([C@@H](C)CC)NC(=O)[C@H](Cc2ccc(O)cc2)NC(=O)[C@H](CC(=O)O)NC(=O)[C@H](CCCCN)NC(=O)[C@H](CO)NC(=O)[C@H](CCC(N)=O)NC1=O` [SLI-NIPV] (Ac-DISSQISS[Nle]NQSL[R8]QSKDYI[S5]EAQKILDTVK([PEG4-Acetyl(2-S-cholesteryl)])-NH2; staple 14-21), the cytotoxicity (293T cells) was “no cytotoxicity”.
